PubChem BioAssay AID1918954 (Molecular Pharmacology Branch, DTP, NCI, 2023)

System: MDA-MB-468 complex spheroids with HUVEC/MSC, viability
Experiment: Anticancer human tumor MDA-MB-468 cell line growth inhibition;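 further: spheroids exposed to agents for seven days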;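 on viability, T/C: 100% = DMSO vehicle control viability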
Settings: for IC50: curve of first compound; for viability, T/C: stronger effect = lower value
Excerpt: Multicellular complex tumor spheroid response to LSD1 Inhibitor Iadademstat in combination with a variety of drugs and investigational agents in selected tumor cell lines
The current study was undertaken to assess response to LSD1 inhibitors in combination with standard-of-care drugs and investigational agents in solid tumor complex spheroid models as well as in the K-562 leukemia. Complex spheroids include a stromal component modeled by human endothelial cells (HUVEC) and fibroblasts modeled by human mesenchymal stem cells (MSCs). The concentration ranges selected for each drug and investigational agent were based upon clinically achievable concentrations if the clinical Cmax of the agent was known.
Compounds. The drugs and investigational agents used in this study are listed on Table 1. All of the agents used, including staurosporine (NSC755774) and gemcitabine (NSC613327), were obtained from the Developmental Therapeutics Program, NCI. FDA-approved anticancer drugs are available from the NCI at http://dtp.nci.nih.gov/branches/dscb/oncology_drugset_explanation.html. Drugs and investigational agents were >95% pure by proton nuclear magnetic resonance (NMR) and liquid chromatography/mass spectrometry (LC/MS). Stock solutions were prepared at 400x in DMSO, stored at -70 degrees C, and diluted in fresh medium prior to their use. The final concentration of DMSO in cell culture wells never exceeded 0.25% (v/v). The FDA-approved anticancer drug set is available from the Developmental Therapeutics Program at https://dtp.cancer.gov/organization/dscb/obtaining/available_plates.htm. All drugs and investigational agents were tested over a range starting from a high concentration at or near the clinical Cmax and decreasing in half-log increments. If the clinical Cmax for an agent had not been determined, the highest concentration tested was 10 microM.
Cell Lines. The patient-derived cancer cell (PDC) lines: 292921-168-R-J2-PDC, K24384-001-R-PDC, and 521955-158-R2-J5-PDC pancreatic carcinomas, 556581-035-R-J1 ovarian carcinoma, 324938-238-R-J1-PDC, 855422-203-R-J1-PDC and 883617-216-R-J1-PDC urothelial bladder carcinomas, 743489-274-T-PDC renal cell carcinoma, 138582-R-J1 Merkel cell tumor, K60290-347-R-J1 and K57222-313-R-J1-PDC glioblastomas, 653999-131-R-J2-PDC, LG0703-F948-PDC, and 349418-098-R-PDC non-small cell lung carcinomas, 885512-296-R-J2-PDC, 171881-019-R-J1-PDC breast carcinomas and 186277-243-T-J2-PDC and 233499-124-R-J2-PDC colon carcinomas were obtained from the NCI Patient-Derived Models Repository (PDMR, https://pdmr.cancer.gov). The established cell lines NCI/ADR-RES (RRID:CVCL_14520 and OVCAR-5 (RRID:CVCL_1628) ovarian carcinomas, 786-O (RRID:CVCL_1051) and A498 (RRID:CVCL_A498) renal cell carcinoma, NCI-H211 (ATCC, cat. CRL-5824; RRID:CVCL_1529), NCI-H196 (ATCC, cat. CRL-5823, RRID:CVCL_1509), SW 1271 (ATCC, cat. CRL-2177, RRID:CVCL_1716) and NCI-H1876 (ATCC, cat. CRL-5902, RRID:CVCL_1503) small cell lung carcinomas, MDA-MB-231 (RRID:CVCL_0062) and MDA-MB-468 (RRID:CVCL_0419)breast carcinomas (10-12). Pooled donor human umbilical vein endothelial cells (HUVEC, Lonza, cat. CC-2519) and human mesenchymal stem cells (hMSC, Lonza, cat. PT-2501) were purchased from Lonza (Walkersville, MD).
Cell Culture. All cells were maintained in an incubator at 37 degrees C and 5% CO2 with 95% humidity. The PDC lines were cultured according to standard operating procedures established by the NCI PDMR (https://pdmr.cancer.gov). Briefly all PDCs were thawed and cultured in Matrigel-coated flasks prepared with a working solution of 1X Ham's F-12 nutrient mix, without supplementation (Invitrogen, Waltham, MA, cat. 11765054), 100 U/mL penicillin-streptomycin (Invitrogen, cat. 15140122), and 2.5% Matrigel (Corning Inc., Corning, NY, cat. 354248) for the first three passages. […]

[1] = second compound 0.1 µM, first compound 0.00316 µM
[2] = second compound 0.1 µM, first compound 0.01 µM
[3] = second compound 0.1 µM, first compound 0.0316 µM
[4] = second compound 0.1 µM, first compound 0.1 µM
[5] = second compound 0.316 µM, first compound 0.00316 µM
[6] = second compound 0.316 µM, first compound 0.01 µM
[7] = second compound 0.316 µM, first compound 0.0316 µM
[8] = second compound 0.316 µM, first compound 0.1 µM
[9] = second compound 1 µM, first compound 0.00316 µM
[10] = second compound 1 µM, first compound 0.01 µM
[11] = second compound 1 µM, first compound 0.0316 µM
[12] = second compound 1 µM, first compound 0.1 µM
[13] = second compound 3.16 µM, first compound 0.00316 µM
[14] = second compound 3.16 µM, first compound 0.01 µM
[15] = second compound 3.16 µM, first compound 0.0316 µM
[16] = second compound 3.16 µM, first compound 0.1 µM
[17] = second compound 10 µM, first compound 0.00316 µM
[18] = second compound 10 µM, first compound 0.01 µM
[19] = second compound 10 µM, first compound 0.0316 µM
[20] = second compound 10 µM, first compound 0.1 µM

SMILES: CC[C@@]1(O)C(=O)OCc2c1cc1n(c2=O)Cc2cc3c(CN(C)C)c(O)ccc3nc2-1 + NC1CC1c1ccc(-c2cccc(O)c2)cc1
- IC50 (second compound 0.1 µM): 1.32 nM
- IC50 (second compound 0.316 µM): 1.2 nM
- IC50 (second compound 1 µM): 1.15 nM
- IC50 (second compound 3.16 µM): 1.05 nM
- IC50 (second compound 10 µM): 0.731 nM
- viability, T/C (second compound 0.1 µM, first compound 0.000316 µM): 95.6%
- viability, T/C (second compound 0.1 µM, first compound 0.001 µM): 61.8%
- viability, T/C [1]: 12.6%
- viability, T/C [2]: 7.83%
- viability, T/C [3]: 4.57%
- viability, T/C [4]: 4.01%
- viability, T/C (second compound 0.316 µM, first compound 0.000316 µM): 97.4%
- viability, T/C (second compound 0.316 µM, first compound 0.001 µM): 57.1%
- viability, T/C [5]: 12.2%
- viability, T/C [6]: 7.26%
- viability, T/C [7]: 4.33%
- viability, T/C [8]: 3.89%
- viability, T/C (second compound 1 µM, first compound 0.000316 µM): 90.9%
- viability, T/C (second compound 1 µM, first compound 0.001 µM): 55.3%
- viability, T/C [9]: 12.1%
- viability, T/C [10]: 7.25%
- viability, T/C [11]: 4.02%
- viability, T/C [12]: 3.43%
- viability, T/C (second compound 3.16 µM, first compound 0.000316 µM): 98%
- viability, T/C (second compound 3.16 µM, first compound 0.001 µM): 51.8%
- viability, T/C [13]: 12.3%
- viability, T/C [14]: 6.86%
- viability, T/C [15]: 3.9%
- viability, T/C [16]: 2.97%
- viability, T/C (second compound 10 µM, first compound 0.000316 µM): 67.6%
- viability, T/C (second compound 10 µM, first compound 0.001 µM): 43.5%
- viability, T/C [17]: 13.9%
- viability, T/C [18]: 7.24%
- viability, T/C [19]: 4.44%
- viability, T/C [20]: 3.53%

SMILES: COc1cc(C2c3cc4c(cc3C(OC3OC5COC(C)OC5C(O)C3O)C3COC(=O)C23)OCO4)cc(OC)c1O (stereo not given) + NC1CC1c1ccc(-c2cccc(O)c2)cc1
- IC50 (second compound 0.1 µM): 57.7 nM
- IC50 (second compound 0.316 µM): 50.8 nM
- IC50 (second compound 1 µM): 45.5 nM
- IC50 (second compound 3.16 µM): 47.2 nM
- IC50 (second compound 10 µM): 21 nM
- viability, T/C (second compound 0.1 µM, first compound 0.00949 µM): 88.3%
- viability, T/C (second compound 0.1 µM, first compound 0.03 µM): 79.1%
- viability, T/C (second compound 0.1 µM, first compound 0.0949 µM): 27.5%
- viability, T/C (second compound 0.1 µM, first compound 0.3 µM): 13%
- viability, T/C (second compound 0.1 µM, first compound 0.949 µM): 7.49%
- viability, T/C (second compound 0.1 µM, first compound 3 µM): 3.87%
- viability, T/C (second compound 0.316 µM, first compound 0.00949 µM): 107%
- viability, T/C (second compound 0.316 µM, first compound 0.03 µM): 69.9%
- viability, T/C (second compound 0.316 µM, first compound 0.0949 µM): 26%
- viability, T/C (second compound 0.316 µM, first compound 0.3 µM): 11.5%
- viability, T/C (second compound 0.316 µM, first compound 0.949 µM): 7.32%
- viability, T/C (second compound 0.316 µM, first compound 3 µM): 3.63%
- viability, T/C (second compound 1 µM, first compound 0.00949 µM): 90%
- viability, T/C (second compound 1 µM, first compound 0.03 µM): 64.2%
- viability, T/C (second compound 1 µM, first compound 0.0949 µM): 24.7%
- viability, T/C (second compound 1 µM, first compound 0.3 µM): 11.3%
- viability, T/C (second compound 1 µM, first compound 0.949 µM): 6.82%
- viability, T/C (second compound 1 µM, first compound 3 µM): 3.4%
- viability, T/C (second compound 3.16 µM, first compound 0.00949 µM): 89.8%
- viability, T/C (second compound 3.16 µM, first compound 0.03 µM): 68.7%
- viability, T/C (second compound 3.16 µM, first compound 0.0949 µM): 21%
- viability, T/C (second compound 3.16 µM, first compound 0.3 µM): 11%
- viability, T/C (second compound 3.16 µM, first compound 0.949 µM): 6.58%
- viability, T/C (second compound 3.16 µM, first compound 3 µM): 3.35%
- viability, T/C (second compound 10 µM, first compound 0.00949 µM): 68.2%
- viability, T/C (second compound 10 µM, first compound 0.03 µM): 42.8%
- viability, T/C (second compound 10 µM, first compound 0.0949 µM): 15.8%
- viability, T/C (second compound 10 µM, first compound 0.3 µM): 14.5%
- viability, T/C (second compound 10 µM, first compound 0.949 µM): 8.05%
- viability, T/C (second compound 10 µM, first compound 3 µM): 3.42%

SMILES: Nc1ncn(C2CC(O)C(CO)O2)c(=O)n1 (stereo not given) + NC1CC1c1ccc(-c2cccc(O)c2)cc1
- IC50 (second compound 0.1 µM): 16.4 nM
- IC50 (second compound 0.316 µM): 19.3 nM
- IC50 (second compound 1 µM): 17.9 nM
- IC50 (second compound 3.16 µM): 15 nM
- IC50 (second compound 10 µM): 9.07 nM
- viability, T/C [1]: 87.3%
- viability, T/C [2]: 66.9%
- viability, T/C [3]: 27.2%
- viability, T/C [4]: 12.3%
- viability, T/C (second compound 0.1 µM, first compound 0.316 µM): 9.59%
- viability, T/C (second compound 0.1 µM, first compound 1 µM): 7.38%
- viability, T/C [5]: 89.9%
- viability, T/C [6]: 74.8%
- viability, T/C [7]: 31.2%
- viability, T/C [8]: 11.8%
- viability, T/C (second compound 0.316 µM, first compound 0.316 µM): 8.68%
- viability, T/C (second compound 0.316 µM, first compound 1 µM): 6.69%
- viability, T/C [9]: 92.4%
- viability, T/C [10]: 72.2%
- viability, T/C [11]: 27.8%
- viability, T/C [12]: 12.6%
- viability, T/C (second compound 1 µM, first compound 0.316 µM): 7.79%
- viability, T/C (second compound 1 µM, first compound 1 µM): 7.05%
- viability, T/C [13]: 90.1%
- viability, T/C [14]: 64%
- viability, T/C [15]: 24.4%
- viability, T/C [16]: 11.6%
- viability, T/C (second compound 3.16 µM, first compound 0.316 µM): 8.23%
- viability, T/C (second compound 3.16 µM, first compound 1 µM): 6.83%
- viability, T/C [17]: 69%
- viability, T/C [18]: 48.1%
- viability, T/C [19]: 25.1%
- viability, T/C [20]: 11.4%
- viability, T/C (second compound 10 µM, first compound 0.316 µM): 7.65%
- viability, T/C (second compound 10 µM, first compound 1 µM): 6.35%
